Results on 23 compounds are retold here after US20230227435A1, “SMALL MOLECULE MODULATORS OF IL-17” (LEO PHARMA A/S, priority 2020, published 2023).

One assay addresses T1, human IL-17AA (Homo sapiens, UniProt Q16552).
T1 construct: host or cells: HEK (human embryonic kidney) cells
T1 sequence (Q16552 24-155) 1: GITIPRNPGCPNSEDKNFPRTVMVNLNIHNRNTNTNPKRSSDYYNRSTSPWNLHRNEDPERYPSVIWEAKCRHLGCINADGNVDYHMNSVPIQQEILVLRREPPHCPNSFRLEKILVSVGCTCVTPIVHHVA
T1 sequence (Q16552 24-155) 2: T1 sequence (Q16552 24-155) 1
As to the kind of experiment: IL-8 release assay in human epithelial keratinocytes adult (HEKa). The format is cell-based. The conditions noted are these: HEKa cells; 3 ng/mL HEK-human IL-17AA + 10 ng/mL human TNFalpha; 68-72 hours; IL-8 by HTRF. Here is the method:
Example 8: IL-8 Release Assay in Human Epithelial Keratinocytes Adult (HEKa)
Keratinocytes were seeded at 3500 cells/well in 384-well ViewPlates (Perkin Elmer) in Epilife medium (Thermo Fisher) containing human keratinocyte growth supplement (HKGS) without hydrocortisone and incubated in a humid incubator at 37° C., 5% CO2, overnight. The following day growth medium was removed and 25 μl fresh Epilife medium was added. 75 nL test compound in100% DMSO was added into each well reserved for test compounds, by the use of acoustic pipetting. The remaining wells received an equal volume of DMSO only, as vehicle control, or terfenadine in DMSO, as a positive control for any cytotoxic compounds. Subsequently, another 25 μL Epilife medium was added to each well. Finally, wells containing test compounds and wells prepared to yield maximum stimulation received 25 μL of 9 ng/mL recombinant, human embryonic kidney cell (HEK)-derived human IL-17AA+30 ng/mL human TNF-alpha, in Epilife medium. Wells prepared to define 100% inhibition of IL-17 effects received 25 μL of 30 ng/mL human TNF-alpha alone, in Epilife medium. Final concentrations were 3 ng/mL HEK-human IL-17AA+10 ng/mL human TNFalpha (maximum stimulation) and 10 ng/mL human TNFalpha alone (100% inhibition, Emax), respectively. Cells were incubated for 68-72 hours in the incubator. IL-8 released from the cells was measured by the use of a commercial homogenous time-resolved fluorescence (HTRF) assay (CisBio). 2 μL cell culture supernatant was transferred to a 384-well Proxiplate. 5 μL HTRF reagent was added and the plates were incubated sealed in the dark for 3-22 hours at room temperature. Time-resolved fluorescence was read at 665 vs 620 nm, with excitation at 320 nm, and IL-8 levels were calculated as percent of controls. Reduction of the amount of secreted IL-8 indicates decreased IL-17 signaling. Concentration response curves were fitted by the use of a four-parameter logistic equation. Relative IC50 and Emax were reported from curves showing acceptable fit (r^2>0.9). Cytotoxicity was measured in the cell-containing Viewplates following addition of 7 μL PrestoBlue (Thermo Fisher) and incubation for 2.5-3 hours at room temperature, by measuring fluorescence at 615 nm (excitation at 535 nm). Fluorescence was directly proportional to the amount of metabolic activity. Reduction of fluorescence signal indicated cytotoxicity.
Compounds of the present invention were tested in the IL-8 release assay in human epithelial keratinocytes.
In the case of `Cc1cn(C)nc1-c1nnc(C(C(=O)Nc2ccc(-c3c(C)n[nH]c3C)cc2)C(C2CC2)C2CC2)[nH]1` (centres unmarked) [Example 46, 3,3-dicyclopropyl-N-[4-(3,5-dimethyl-1H-pyrazol-4-yl)phenyl]-2-[5-(1,4-dimethylpyrazol-3-yl)-4H-1,2,4-triazol-3-yl]propanamide], the “Rel EC50 IL-8 release assay” value is given as “no”.

Still in this assay, the particulars now being: HEKa cells; 3 ng/mL HEK-human IL-17AA + 10 ng/mL human TNFalpha; 68-72 hours; IL-8 by HTRF; read-out: Rel EC50 IL-8 release assay.
As a reminder, the EC50 is the midpoint of the concentration-response curve. As to `Cc1n[nH]c(C)c1-c1ccc(NC(=O)C(c2nnc(-c3ccn[nH]3)[nH]2)C(C2CC2)C2CC2)cc1` (centres unmarked) [Example 24, 3,3-dicyclopropyl-N-[4-(3,5-dimethyl-1H-pyrazol-4-yl)phenyl]-2-[5-(1H-pyrazol-5-yl)-4H-1,2,4-triazol-3-yl]propanamide], the EC50 was 690 nM.
On the same count and under the same terms, in the case of `Cc1nn(C)cc1-c1nnc(C(C(=O)Nc2ccc(-c3c(C)n[nH]c3C)cc2)C(C2CC2)C2CC2)[nH]1` (centres unmarked) [Example 25, 3,3-dicyclopropyl-N-[4-(3,5-dimethyl-1H-pyrazol-4-yl)phenyl]-2-[5-(1,3-dimethylpyrazol-4-yl)-4H-1,2,4-triazol-3-yl]propanamide] it was 230 nM; in that of `Cc1n[nH]c(C)c1-c1ccc(NC(=O)C(c2nnc(-c3ccnn3CC(F)(F)F)[nH]2)C(C2CC2)C2CC2)cc1` (centres unmarked) [Example 26, 3,3-dicyclopropyl-N-[4-(3,5-dimethyl-1H-pyrazol-4-yl)phenyl]-2-[5-[2-(2,2,2-trifluoroethyl)pyrazol-3-yl]-4H-1,2,4-triazol-3-yl]propanamide], 24 nM; in that of `Cc1n[nH]c(C)c1-c1ccc(NC(=O)C(c2nnc(-c3ccnn3C3CCC3)[nH]2)C(C2CC2)C2CC2)cc1` (centres unmarked) [Example 27, 2-[5-(2-cyclobutylpyrazol-3-yl)-4H-1,2,4-triazol-3-yl]-3,3-dicyclopropyl-N-[4-(3,5-dimethyl-1H-pyrazol-4-yl)phenyl]propanamide], 32 nM.
Still for that read-out and setting: in the case of `Cc1cc(-c2nnc(C(C(=O)Nc3ccc(-c4c(C)n[nH]c4C)cc3)C(C3CC3)C3CC3)[nH]2)ccn1` (centres unmarked) [Example 28, 3,3-dicyclopropyl-N-[4-(3,5-dimethyl-1H-pyrazol-4-yl)phenyl]-2-[5-(2-methyl-4-pyridyl)-4H-1,2,4-triazol-3-yl]propanamide] it was 140 nM.
Still for that read-out and setting: in the case of `Cc1n[nH]c(C)c1-c1ccc(NC(=O)C(c2nnc(-c3c(C)n[nH]c3C)[nH]2)C(C2CC2)C2CC2)cc1` (centres unmarked) [Example 29, 3,3-dicyclopropyl-N-[4-(3,5-dimethyl-1H-pyrazol-4-yl)phenyl]-2-[5-(3,5-dimethyl-1H-pyrazol-4-yl)-4H-1,2,4-triazol-3-yl]propanamide] it was 1400 nM.
As for `Cc1n[nH]c(C)c1-c1ccc(NC(=O)C(c2nnc(-c3cnn(C(C)C)c3)[nH]2)C(C2CC2)C2CC2)cc1` (centres unmarked) [Example 30, 3,3-dicyclopropyl-N-[4-(3,5-dimethyl-1H-pyrazol-4-yl)phenyl]-2-[5-(1-isopropylpyrazol-4-yl)-4H-1,2,4-triazol-3-yl]propanamide], the EC50 was found to be 270 nM.
Same read-out and setting: to `Cc1n[nH]c(C)c1-c1ccc(NC(=O)C(c2nnc(-c3cccnc3)[nH]2)C(C2CC2)C2CC2)cc1` (centres unmarked) [Example 31, 3,3-dicyclopropyl-N-[4-(3,5-dimethyl-1H-pyrazol-4-yl)phenyl]-2-[5-(3-pyridyl)-4H-1,2,4-triazol-3-yl]propanamide] belongs 430 nM; to `Cc1n[nH]c(C)c1-c1ccc(NC(=O)C(c2nnc(-c3c(C)noc3C)[nH]2)C(C2CC2)C2CC2)cc1` (centres unmarked) [Example 32, 3,3-dicyclopropyl-2-[5-(3,5-dimethylisoxazol-4-yl)-4H-1,2,4-triazol-3-yl]-N-[4-(3,5-dimethyl-1H-pyrazol-4-yl)phenyl]propanamide], 910 nM.
With `Cc1n[nH]c(C)c1-c1ccc(NC(=O)C(c2nnc(-c3ccncc3)[nH]2)C(C2CC2)C2CC2)cc1` (centres unmarked) [Example 33, 3,3-dicyclopropyl-N-[4-(3,5-dimethyl-1H-pyrazol-4-yl)phenyl]-2-[5-(4-pyridyl)-4H-1,2,4-triazol-3-yl]propanamide], the EC50 was 480 nM.
As for `COc1ccc(-c2nnc(C(C(=O)Nc3ccc(-c4c(C)n[nH]c4C)cc3)C(C3CC3)C3CC3)[nH]2)cn1` (centres unmarked) [Example 34, 3,3-dicyclopropyl-N-[4-(3,5-dimethyl-1H-pyrazol-4-yl)phenyl]-2-[5-(6-methoxy-3-pyridyl)-4H-1,2,4-triazol-3-yl]propanamide], the EC50 is 430 nM.
Same read-out and setting: in the case of `COc1cc(-c2nnc(C(C(=O)Nc3ccc(-c4c(C)n[nH]c4C)cc3)C(C3CC3)C3CC3)[nH]2)ccn1` (centres unmarked) [Example 35, 3,3-dicyclopropyl-N-[4-(3,5-dimethyl-1H-pyrazol-4-yl)phenyl]-2-[5-(2-methoxy-4-pyridyl)-4H-1,2,4-triazol-3-yl]propanamide] it was 160 nM; in that of `Cc1ccc(-c2nnc(C(C(=O)Nc3ccc(-c4c(C)n[nH]c4C)cc3)C(C3CC3)C3CC3)[nH]2)cn1` (centres unmarked) [Example 36, 3,3-dicyclopropyl-N-[4-(3,5-dimethyl-1H-pyrazol-4-yl)phenyl]-2-[5-(6-methyl-3-pyridyl)-4H-1,2,4-triazol-3-yl]propanamide], 440 nM.
In the case of `Cc1cnn(C)c1-c1nnc(C(C(=O)Nc2ccc(-c3c(C)n[nH]c3C)cc2)C(C2CC2)C2CC2)[nH]1` (centres unmarked) [Example 37, 3,3-dicyclopropyl-N-[4-(3,5-dimethyl-1H-pyrazol-4-yl)phenyl]-2-[5-(2,4-dimethylpyrazol-3-yl)-4H-1,2,4-triazol-3-yl]propanamide], the EC50 was 380 nM.
Turning to `Cc1n[nH]c(C)c1-c1ccc(NC(=O)C(c2nnc(-c3cnn(C)c3C)[nH]2)C(C2CC2)C2CC2)cc1` (centres unmarked) [Example 38, 3,3-dicyclopropyl-N-[4-(3,5-dimethyl-1H-pyrazol-4-yl)phenyl]-2-[5-(1,5-dimethylpyrazol-4-yl)-4H-1,2,4-triazol-3-yl]propanamide], the EC50 turned out to be 360 nM.
On the same count and under the same terms, in the case of `Cc1n[nH]cc1-c1nnc(C(C(=O)Nc2ccc(-c3c(C)n[nH]c3C)cc2)C(C2CC2)C2CC2)[nH]1` (centres unmarked) [Example 39, 3,3-dicyclopropyl-N-[4-(3,5-dimethyl-1H-pyrazol-4-yl)phenyl]-2-[5-(3-methyl-1H-pyrazol-4-yl)-4H-1,2,4-triazol-3-yl]propanamide] it was 500 nM; in that of `Cc1n[nH]c(C)c1-c1ccc(NC(=O)C(c2nnc(-c3cnnn3C)[nH]2)C(C2CC2)C2CC2)cc1` (centres unmarked) [Example 40, 3,3-dicyclopropyl-N-[4-(3,5-dimethyl-1H-pyrazol-4-yl)phenyl]-2-[5-(3-methyltriazol-4-yl)-4H-1,2,4-triazol-3-yl]propanamide], 860 nM.
As for `Cc1n[nH]c(C)c1-c1ccc(NC(=O)C(c2nnc(-c3cnoc3C)[nH]2)C(C2CC2)C2CC2)cc1` (centres unmarked) [Example 41, 3,3-dicyclopropyl-N-[4-(3,5-dimethyl-1H-pyrazol-4-yl)phenyl]-2-[5-(5-methylisoxazol-4-yl)-4H-1,2,4-triazol-3-yl]propanamide], the EC50 is above 3250 nM.
Same read-out and setting: to `Cc1nocc1-c1nnc(C(C(=O)Nc2ccc(-c3c(C)n[nH]c3C)cc2)C(C2CC2)C2CC2)[nH]1` (centres unmarked) [Example 42, 3,3-dicyclopropyl-N-[4-(3,5-dimethyl-1H-pyrazol-4-yl)phenyl]-2-[5-(3-methylisoxazol-4-yl)-4H-1,2,4-triazol-3-yl]propanamide] belongs 470 nM; to `Cc1n[nH]c(C)c1-c1ccc(NC(=O)C(c2nnc(-c3ccnn3C(C)C)[nH]2)C(C2CC2)C2CC2)cc1` (centres unmarked) [Example 43, 3,3-dicyclopropyl-N-[4-(3,5-dimethyl-1H-pyrazol-4-yl)phenyl]-2-[5-(2-isopropylpyrazol-3-yl)-4H-1,2,4-triazol-3-yl]propanamide], 66 nM.
The same measure, in the same setting: in the case of `Cc1n[nH]c(C)c1-c1ccc(NC(=O)C(c2nnc(-c3ccnn3C3CC3)[nH]2)C(C2CC2)C2CC2)cc1` (centres unmarked) [Example 44, 3,3-dicyclopropyl-2-[5-(2-cyclopropylpyrazol-3-yl)-4H-1,2,4-triazol-3-yl]-N-[4-(3,5-dimethyl-1H-pyrazol-4-yl)phenyl]propanamide] it was 77 nM; in that of `Cc1n[nH]c(C)c1-c1ccc(NC(=O)C(c2nnc(-c3ccnn3CC3CC3)[nH]2)C(C2CC2)C2CC2)cc1` (centres unmarked) [Example 45, 3,3-dicyclopropyl-2-[5-[2-(cyclopropylmethyl)pyrazol-3-yl]-4H-1,2,4-triazol-3-yl]-N-[4-(3,5-dimethyl-1H-pyrazol-4-yl)phenyl]propanamide], 22 nM.
